Measurements published in patent US20220217999A1, “METHOD FOR PROTECTING PROTEIN FROM HEAT DAMAGE AND REDUCING RUMEN DEGRADABILITY OF METHIONINE” (AJINOMOTO CO., INC., priority 2019, published 2022).
Like-named read-outs stand apart in the source and are kept apart here.

Settings: for 16 hr. RUP, % of CP / Calculated IAP (intestinally available protein), g/100 g distillers grains / RUP digestibility, g/100 g RUP / RUP, % of DG Protein / Undigested CP, % of CP / Undigested CP, % of feed DM: 0.5 h 128° C. autoclave
Experimental: Using a sample of wet distillers grains (“DG”) was obtained from a commercial ethanol plant, treatments were applied in duplicates. The DG was treated with the three levels of DL-methionine shown in Table 1 and heated in an autoclave for 0.5 hour at 128° C. Following heat treatment, samples were dried in a forced oven set at 40° C. Dried samples were composited within treatment and analyzed for RUP and undigested total tract protein using a standard method.

CSCCC(N)C(=O)O (racemic) [DL-Methionine]
16 hr. RUP, % of CP (1.0 wt. % DL-Methionine added to distillers grains): 69.2 % of CP | Calculated IAP (intestinally available protein), g/100 g distillers grains (1.0 wt. % DL-Methionine): 15.7 g/100 g distillers grains | RUP digestibility, g/100 g RUP (1.0 wt. % DL-Methionine): 72.1 g/100 g RUP | RUP, % of DG Protein (1.0 wt. % DL-Methionine): 72.8 % of DG Protein | Undigested CP, % of CP (1.0 wt. % DL-Methionine): 19.3 % of CP | Undigested CP, % of feed DM (1.0 wt. % DL-Methionine): 6.02 % of feed DM | 16 hr. RUP, % of CP (1.5 wt. % DL-Methionine added to distillers grains): 71.2 % of CP | Calculated IAP (intestinally available protein), g/100 g distillers grains (1.5 wt. % DL-Methionine): 15.2 g/100 g distillers grains | RUP digestibility, g/100 g RUP (1.5 wt. % DL-Methionine): 67.8 g/100 g RUP | RUP, % of DG Protein (1.5 wt. % DL-Methionine): 74.8 % of DG Protein | Undigested CP, % of CP (1.5 wt. % DL-Methionine): 22.9 % of CP | Undigested CP, % of feed DM (1.5 wt. % DL-Methionine): 7.08 % of feed DM | calculated digestibility of RUP, higher compared with Control (2% DL-methionine): 13.9% | total metabolically available protein, higher compared with Control (2% DL-methionine sample): 17% | 16 hr. RUP, % of CP (2.0 wt. % DL-Methionine added to distillers grains): 67.2 % of CP | Calculated IAP (intestinally available protein), g/100 g distillers grains (2.0 wt. % DL-Methionine): 16.0 g/100 g distillers grains | RUP digestibility, g/100 g RUP (2.0 wt. % DL-Methionine): 72.7 g/100 g RUP | RUP, % of DG Protein (2.0 wt. % DL-Methionine): 73.3 % of DG Protein | Undigested CP, % of CP (2.0 wt. % DL-Methionine): 18.3 % of CP | Undigested CP, % of feed DM (2.0 wt. % DL-Methionine): 5.85 % of feed DM | total un-digested protein, lower compared with Control (highest level of DL-methionine): 28%
